According to patent US10196364B2, “Pyrimidine carboxamides as sodium channel blockers” (Purdue Pharma L.P., priority 2013, dated 2019):

The compounds below were run against human Nav1.7 (Homo sapiens, UniProt Q15858) (assay: FLIPR sodium dye assay (CoroNa Green AM Na+ dye, primary fluorescence assay) in recombinant Nav1.7/HEK293 cells). Conditions: Table 6; CoroNa Green AM Na+ dye primary fluorescence assay; read-out: Nav1.7 Activity (μM) FLIPR assay IC50.
Type: cell-based

Sequence of human Nav1.7 (Q15858 1-1977 isoform Q15858-3): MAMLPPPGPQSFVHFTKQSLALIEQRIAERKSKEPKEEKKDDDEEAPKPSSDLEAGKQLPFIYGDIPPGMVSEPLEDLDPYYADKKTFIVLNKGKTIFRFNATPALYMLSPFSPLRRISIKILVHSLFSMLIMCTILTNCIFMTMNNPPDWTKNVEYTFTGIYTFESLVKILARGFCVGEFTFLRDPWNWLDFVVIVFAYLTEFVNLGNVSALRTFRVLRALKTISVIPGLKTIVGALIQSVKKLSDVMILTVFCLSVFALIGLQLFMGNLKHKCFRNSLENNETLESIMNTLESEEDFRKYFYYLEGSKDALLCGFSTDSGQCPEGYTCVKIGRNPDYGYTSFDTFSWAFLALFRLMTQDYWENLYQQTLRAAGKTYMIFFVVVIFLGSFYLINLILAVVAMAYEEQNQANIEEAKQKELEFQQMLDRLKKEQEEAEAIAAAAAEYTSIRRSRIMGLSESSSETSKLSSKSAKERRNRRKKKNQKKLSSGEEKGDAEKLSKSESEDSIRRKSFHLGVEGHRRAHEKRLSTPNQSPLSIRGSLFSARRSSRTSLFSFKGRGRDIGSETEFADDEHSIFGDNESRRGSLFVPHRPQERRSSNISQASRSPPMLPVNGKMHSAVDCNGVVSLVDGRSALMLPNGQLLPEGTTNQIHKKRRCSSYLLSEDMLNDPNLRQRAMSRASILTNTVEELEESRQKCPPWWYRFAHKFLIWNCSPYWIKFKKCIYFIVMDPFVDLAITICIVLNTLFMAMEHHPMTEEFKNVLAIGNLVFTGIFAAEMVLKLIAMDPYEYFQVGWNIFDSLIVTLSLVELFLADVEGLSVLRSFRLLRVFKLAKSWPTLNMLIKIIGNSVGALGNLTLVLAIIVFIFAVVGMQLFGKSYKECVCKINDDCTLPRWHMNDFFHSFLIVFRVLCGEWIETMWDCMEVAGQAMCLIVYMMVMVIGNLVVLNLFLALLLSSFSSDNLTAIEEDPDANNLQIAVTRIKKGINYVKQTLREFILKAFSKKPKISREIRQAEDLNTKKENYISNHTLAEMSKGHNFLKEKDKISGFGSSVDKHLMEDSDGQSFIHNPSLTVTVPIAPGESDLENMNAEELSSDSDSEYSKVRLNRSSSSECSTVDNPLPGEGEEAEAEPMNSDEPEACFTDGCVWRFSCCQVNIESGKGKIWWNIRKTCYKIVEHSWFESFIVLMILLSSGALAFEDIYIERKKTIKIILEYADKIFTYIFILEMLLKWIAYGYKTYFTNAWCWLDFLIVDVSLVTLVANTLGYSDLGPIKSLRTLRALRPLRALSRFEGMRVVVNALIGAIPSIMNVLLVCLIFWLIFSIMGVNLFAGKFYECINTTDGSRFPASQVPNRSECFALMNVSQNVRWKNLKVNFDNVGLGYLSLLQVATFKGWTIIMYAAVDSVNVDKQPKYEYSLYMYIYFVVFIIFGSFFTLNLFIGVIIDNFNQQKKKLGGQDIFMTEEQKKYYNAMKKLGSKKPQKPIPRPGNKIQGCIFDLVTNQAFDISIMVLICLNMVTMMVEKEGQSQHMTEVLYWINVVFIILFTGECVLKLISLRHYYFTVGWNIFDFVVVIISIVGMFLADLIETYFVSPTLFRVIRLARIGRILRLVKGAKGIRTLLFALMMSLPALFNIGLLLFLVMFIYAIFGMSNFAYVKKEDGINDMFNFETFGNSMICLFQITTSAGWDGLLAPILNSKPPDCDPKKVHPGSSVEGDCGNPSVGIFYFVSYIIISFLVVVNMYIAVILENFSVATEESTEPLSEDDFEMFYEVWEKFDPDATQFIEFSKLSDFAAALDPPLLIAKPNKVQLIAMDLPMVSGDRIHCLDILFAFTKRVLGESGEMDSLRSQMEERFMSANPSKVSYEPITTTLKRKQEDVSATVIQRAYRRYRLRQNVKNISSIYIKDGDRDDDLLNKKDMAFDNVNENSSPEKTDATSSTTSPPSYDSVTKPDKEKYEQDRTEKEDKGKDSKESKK

Question: For `NC(=O)c1cc(N[C@H]2CCNC2=O)nc(C2=C[C@H]3CC[C@@H](C2)N3Cc2ccc(F)cc2)n1` [compound 138, 2-((1R,5S)-8-(4-fluorobenzyl)-8-azabicyclo[3.2.1]oct-2-en-3-yl)-6-(((S)-2-oxopyrrolidin-3-yl)amino)pyrimidine-4-carboxamide], which IC50 is on record?
Answer: > 20 µM

Question: How did the IC50 turn out when `NC(=O)c1cc(-c2ccc(Oc3ccc(OC(F)(F)F)cc3)cc2)nc(N2CCC[C@H]2C(N)=O)n1` [compound 126, (S)-2-(2-carbamoylpyrrolidin-1-yl)-6-(4-(4-(trifluoromethoxy)phenoxy)phenyl)pyrimidine-4-carboxamide] was run?
Answer: > 20 µM

Question: How did the IC50 turn out when `C[C@H](Nc1cc(C(N)=O)nc(-c2ccc(Oc3cnc(C4CC4)cn3)cc2)n1)C(N)=O` [Cpd No. 195, (S)-6-((1-amino-1-oxopropan-2-yl)amino)-2-(4-((5-cyclopropyl-pyrazin-2-yl)oxy)phenyl)-pyrimidine-4-carboxamide] was run?
Answer: > 20 µM

Question: Which IC50 does the source give for `NC(=O)c1cc(N[C@H]2CCNC2=O)nc(C2CCC(Oc3ccc(C(F)(F)F)cn3)CC2)n1` (stereo partly drawn) [Cpd No. 214, (S)-6-((2-oxopyrrolidin-3-yl)amino)-2-(4-((5-(trifluoromethyl)pyridin-2-yl)oxy)cyclohexyl)pyrimnidine-4-carboxamide] here?
Answer: 0.93 µM

Question: `C[C@H](Nc1cc(C(N)=O)nc(N2CC3CC2CN3c2ccc(F)cc2)n1)C(N)=O` (stereo partly drawn) [compound 106, 6-(((S)-1-amino-1-oxopropan-2-yl)amino)-2-(5-(4-fluorophenyl)-2,5-diazabicyclo[2.2.1]heptan-2-yl)pyrimidine-4-carboxamide] was tested. Which IC50 did it give?
Answer: 10 to 20 µM

Question: `CC(C)(CO)[C@H](Oc1cc(C(N)=O)nc(-c2ccc(Oc3ccc(C(F)(F)F)cc3)cc2)n1)C(N)=O` [compound 120, (S)-6-((1-amino-4-hydroxy-3,3-dimethyl-1-oxobutan-2-yl)oxy)-2-(4-(4-(trifluoromethyl)phenoxy)phenyl) pyrimidine-4-carboxamide] was tested. Which IC50 did it give?
Answer: 0.76 µM

Question: For `C[C@H](Nc1cc(C(N)=O)nc(-c2ccc(Oc3ccc(C(C)(C)C)cc3)cc2)n1)C(N)=O` [compound 171, (S)-6-((1-amino-1-oxopropan-2-yl)amino)-2-(4-(4-(tert-butyl)phenoxy)phenyl)pyrimidine-4-carboxamide], which IC50 is on record?
Answer: 0.25 µM

Question: How did the IC50 turn out when `NC(=O)c1cc(N[C@H]2CCNC2=O)nc(-c2ccc(Oc3ccc(F)cc3)cc2CN2CCC2)n1` [compound 167, (S)-2-(2-(azetidin-1-ylmethyl)-4-(4-fluorophenoxy)phenyl)-6-((2-oxopyrrolidin-3-yl)amino)pyrimidine-4-carboxamide] was run?
Answer: > 20 µM

Question: `NC(=O)c1cc(N[C@H]2CCNC2=O)nc(-c2ccc(C(=O)c3ccc(C(F)(F)F)cn3)cc2)n1` [compound 162, (S)-6-((2-oxopyrrolidin-3-yl)amino)-2-(4-(5-(trifluoromethyl)picolinoyl)phenyl)pyrimidine-4-carboxamide] was tested. Which IC50 did it give?
Answer: 1.9 µM

Question: How did the IC50 turn out when `C[C@H](Nc1cc(C(N)=O)nc(-c2ccc(Oc3ccc(C#N)cc3)cc2C(F)(F)F)n1)C(N)=O` [compound 128, (S)-6-((1-amino-1-oxopropan-2-yl)amino)-2-(4-(4-cyanophenoxy)-2-(trifluoromethyl)phenyl)pyrimidine-4-carboxamide] was run?
Answer: > 20 µM

Question: `NC(=O)c1cc(N[C@H]2CCNC2=O)nc(-c2ccc(Oc3ccc(F)cc3)cc2CNC2CC2)n1` [compound 163, (S)-2-(2-((cyclopropylamino)methyl)-4-(4-fluorophenoxy)phenyl)-6-((2-oxopyrrolidin-3-yl)amino)pyrimidine-4-carboxamide] was tested. Which IC50 did it give?
Answer: 1.43 µM

Question: With `C[C@H](Nc1cc(C(N)=O)nc(-c2ccc(Oc3ccc(F)cc3)c(C(N)=O)c2)n1)C(N)=O` [compound 111, (S)-6-((1-amino-1-oxopropan-2-yl)amino)-2-(3-carbamoyl-4-(4-fluorophenoxy)phenyl)pyrimidine-4-carboxamide] as the compound, how does the IC50 read?
Answer: 7.88 µM

Question: With `COc1cnc(Oc2ccc(-c3nc(N[C@@H](C)C(N)=O)cc(C(N)=O)n3)cc2)cn1` [Cpd No. 198, (S)-6-((1-amino-1-oxopropan-2-yl)amino)-2-(4-((5-methoxy-pyrazin-2-yl)oxy)phenyl)-pyrimidine-4-carboxamide] as the compound, how does the IC50 read?
Answer: > 20 µM

Question: How did the IC50 turn out when `CC1CN1Cc1cc(Oc2ccc(F)cc2)ccc1-c1nc(N[C@H]2CCNC2=O)cc(C(N)=O)n1` (stereo partly drawn) [Cpd No. 188, 2-(4-(4-fluorophenoxy)-2-((2-methylaziridin-1-yl)methyl)-phenyl)-6-(((S)-2-oxopyrrolidin-3-yl)amino)pyrimidine-4-carboxamide] was run?
Answer: 4.64 µM

Question: `NC(=O)c1cc(O[C@H]2CCNC2=O)nc(C2CCC(Oc3ccc(C(F)(F)F)cn3)CC2)n1` (some centres unmarked) [Cpd No. 213] was tested. Which IC50 did it give?
Answer: 0.69 µM

Question: Which IC50 does the source give for `CCN(CC)Cc1cc(C(F)(F)F)ccc1Oc1ccc(-c2nc(N[C@H]3CCNC3=O)cc(C(N)=O)n2)cc1` [Cpd No. 208, (S)-2-(4-(2-((diethylamino)-methyl)-4-(trifluoromethyl)-phenoxy)phenyl)-6-((2-oxopyrrolidin-3-yl)amino)pyrimidine-4-carboxamide] here?
Answer: 0.75 µM

Question: With `NC(=O)c1cc(N[C@H]2CCNC2=O)nc(-c2ccc(Oc3ccc(OCC(F)(F)F)cn3)cc2)n1` [compound 144, (S)-6-((2-oxopyrrolidin-3-yl)amino)-2-(4-((5-(2,2,2-trifluoroethoxy)pyridin-2-yl)oxy)phenyl)pyrimidine-4-carboxamide] as the compound, how does the IC50 read?
Answer: 1.18 µM

Question: How did the IC50 turn out when `C=CCN1CC[C@H](Oc2cc(C(N)=O)nc(-c3ccc(Oc4ccc(F)cc4)cc3)n2)C1=O` [compound 122, (S)-6-((1-allyl-2-oxopyrrolidin-3-yl)oxy)-2-(4-(4-fluorophenoxy)phenyl)pyrimidine-4-carboxamide] was run?
Answer: 0.8 µM

Question: Which IC50 does the source give for `NC(=O)c1cc(N2CC[C@H]2C(N)=O)nc(-c2ccc(Oc3ccc(F)cc3)cc2)n1` [compound 132, (S)-6-(2-carbamoylazetidin-1-yl)-2-(4-(4-fluorophenoxy)phenyl)pyrimidine-4-carboxamide] here?
Answer: 0.28 µM

Question: For `NC(=O)c1cc(N[C@H]2CCNC2=O)nc(-c2ccc(Oc3ccc(C(F)(F)F)cc3)cc2CN2CCCCC2)n1` [Cpd No. 202, (S)-6-((2-oxopyrrolidin-3-yl)amino)-2-(2-(piperidin-1-ylmethyl)-4-(4-(trifluoromethyl)-phenoxy)phenyl)pyrimidine-4-carboxamide], which IC50 is on record?
Answer: 0.72 µM

Question: Which IC50 does the source give for `NC(=O)c1cc(N[C@H]2CCNC2=O)nc(N2C3CCC2CC(Oc2ccc(C(F)(F)F)cc2-c2cccnc2)C3)n1` (some centres unmarked) [compound 156] here?
Answer: 1.77 µM

Question: `NC(=O)c1cc(N2CCNCC2C(N)=O)nc(-c2ccc(Oc3ccc(Cl)cc3F)cc2)n1` (centres unmarked) [compound 108, 6-(2-carbamoylpiperazin-1-yl)-2-(4-(4-chloro-2-fluorophenoxy)phenyl)pyrimnidine-4-carboxamide] was tested. Which IC50 did it give?
Answer: 0.29 µM

Question: Which IC50 does the source give for `NC(=O)c1cc(N[C@H]2CCNC2=O)nc(-c2ccc(Oc3cnc(C(F)(F)F)cn3)cc2)n1` [compound 141, (S)-6-((2-oxopyrrolidin-3-yl)amino)-2-(4-((5-(trifluoromethyl)pyrazin-2-yl)oxy)phenyl)pyrimidine-4-carboxamide] here?
Answer: 0.74 µM

Question: For `NC(=O)c1cc(N[C@H]2CCNC2=O)nc(-c2ccc(Oc3ccc(C(F)(F)F)cc3CN3CCC3)cc2)n1` [compound 168, (S)-2-(4-(2-(azetidin-1-ylmethyl)-4-(trifluoromethyl)phenoxy)phenyl)-6-((2-oxopyrrolidin-3-yl)amino)pyrimidine-4-carboxamide], which IC50 is on record?
Answer: 1.73 µM

Question: Which IC50 does the source give for `NC(=O)c1cc(N[C@H]2CCNC2=O)nc(Oc2ccc(Oc3ccc(C(F)(F)F)cn3)cc2)n1` [compound 166, (S)-6-((2-oxopyrrolidin-3-yl)amino)-2-(4-((5-(trifluoromethyl)pyridin-2-yl)oxy)phenoxy)pyrimidine-4-carboxamide] here?
Answer: 3.9 µM

Question: With `CN(C)Cc1cc(Oc2ccc(C(F)(F)F)cc2)ccc1-c1nc(N[C@H]2CCNC2=O)cc(C(N)=O)n1` [Cpd No. 201, (S)-2-(2-((dimethylamino)-methyl)-4-(4-(trifluoromethyl)-phenoxy)phenyl)-6-((2-oxopyrrolidin-3-yl)-amino)pyrimidine-4-carboxamide] as the compound, how does the IC50 read?
Answer: > 20 µM

Question: Which IC50 does the source give for `NC(=O)c1cc(N[C@H]2CCNC2=O)nc(N2[C@@H]3CC[C@H]2C[C@H](Oc2ccc(F)cc2Cl)C3)n1` [Cpd No. 182, 2-((1R,3R,5S)-3-(2-chloro-4-fluorophenoxy)-8-azabicyclo[3.2.1]octan-8-yl)-6-(((S)-2-oxopyrrolidin-3-yl)amino)pyrimidine-4-carboxamide] here?
Answer: 0.35 µM

Question: For `NC(=O)c1cc(N[C@H]2CCNC2=O)nc(-c2ccc(Oc3ccc(F)cc3)cc2CN2CCCC2)n1` [compound 160, (S)-2-(4-(4-fluorophenoxy)-2-(pyrrolidin-1-ylmethyl)phenyl)-6-((2-oxopyrrolidin-3-yl)amino)pyrimidine-4-carboxamide], which IC50 is on record?
Answer: 6.67 µM

Question: `NC(=O)c1cc(N[C@H]2CCNC2=O)nc(-c2ccc(Oc3ccc(OCC(F)(F)F)nn3)cc2)n1` [compound 153, (S)-6-((2-oxopyrrolidin-3-yl)amino)-2-(4-((6-(2,2,2-trifluoroethoxy)pyridazin-3-yl)oxy)phenyl)pyrimidine-4-carboxamide] was tested. Which IC50 did it give?
Answer: 1.13 µM

Question: For `CN1CCN(Cc2cc(Oc3ccc(C(F)(F)F)cc3)ccc2-c2nc(N[C@H]3CCNC3=O)cc(C(N)=O)n2)CC1` [Cpd No. 203, (S)-2-(2-((4-methylpiperazin-1-yl)methyl)-4-(4-(trifluoro-methyl)phenoxy)-phenyl)-6-((2-oxopyrrolidin-3-yl)amino)-pyrimidine-4-carboxamide], which IC50 is on record?
Answer: 0.76 µM

Question: With `NC(=O)c1cc(OCCN2CCCC2=O)nc(-c2ccc(Oc3ccc(C(F)(F)F)cc3)cc2)n1` [compound 119, 6-(2-(2-oxopyrrolidin-1-yl)ethoxy)-2-(4-(4-(trifluoromethyl)phenoxy)phenyl)pyrimidine-4-carboxamide] as the compound, how does the IC50 read?
Answer: 0.12 µM

Question: `NC(=O)c1cc(N[C@H]2CCNC2=O)nc(-c2ccc(Oc3ccc4c(c3)OCO4)cc2)n1` [compound 115, (S)-2-(4-(benzo[d][1,3]dioxol-5-yloxy)phenyl)-6-((2-oxopyrrolidin-3-yl)amino)pyrimnidine-4-carboxamide] was tested. Which IC50 did it give?
Answer: 0.3 µM
